The text below walks through data of publication PMC6847237 (2019).

Assay [1] concerns (CAG)9 (5'-biotinylated, immobilized) (RNA, repeat) CAGCAGCAGCAGCAGCAGCAGCAGCAG
Briefly: SPR single cycle kinetics. The following applies: 150 mM NaCl; 10 mM HEPES pH 7.4, 3 mM EDTA, 0.005% P20, 5% DMSO; 0.1-0.5 μM ligand.

Assay [2] has as its system (CCG)9 (5'-biotinylated, immobilized) (RNA, repeat) CCGCCGCCGCCGCCGCCGCCGCCGCCG
Briefly: SPR single cycle kinetics. The following applies: 150 mM NaCl; 10 mM HEPES pH 7.4, 3 mM EDTA, 0.005% P20, 5% DMSO; highest tested 0.5 μM.

Assay [3] concerns GCAG(2′-SeCH3-C)AGC (RNA, mismatch bulge abasic, 2'-methylseleno cytidine at 5) GCAGCAGC
Kind of assay: X-ray crystallography (SAD). The following applies: 5 mM MgCl2; TRIS pH 7.5, 30% PEG 400; RNA 0.75 mM, RNA:ligand 1:2 mixed.

For assay [4], the system named is (GCAGCAGC)2 (RNA, mismatch bulge abasic) GCAGCAGC
Briefly: X-ray crystallography. The following applies: RNA 0.75 mM, RNA:ligand 1:2 mixed.

Assay [5] has as its system (CAG)9 (RNA, repeat) CAGCAGCAGCAGCAGCAGCAGCAGCAG
Briefly: CD titration at 347.5 nm. The following applies: 100 mM NaCl, 10 mM sodium cacodylate pH 7.0, ambient temperature, RNA 2.5 μM, 1:2 binding isotherm.

For assay [6], the system named is (CGG)9 (5'-biotinylated, immobilized) (RNA, repeat) CGGCGGCGGCGGCGGCGGCGGCGGCGG
Briefly: SPR single cycle kinetics. The following applies: 150 mM NaCl; 10 mM HEPES pH 7.4, 3 mM EDTA, 0.005% P20, 5% DMSO; highest tested 0.5 μM.

Assay [7] has as its system (UCAACAGUUGA)2 (RNA, mismatch bulge abasic) UCAACAGUUGA
Briefly: UV melting at 260 nm, median method. The following applies: 100 mM NaCl; 10 mM sodium cacodylate pH 7.0, 2% DMSO; RNA 5 μM, CMBL3a 20 μM.

Take `O=C1Nc2ccc3ccc(nc3n2)CNCc2ccc3ccc(nc3n2)NC(=O)OCC/C=C/CCO1`: the binding entry was “yes” in assay [1]; “no” in assay [2]; “yes” in assay [3]; “yes” in assay [4] (10 mM MgCl2, 1 M Li2SO4, cacodylate pH 6.0); “no” in assay [6]; “yes” in assay [7]. In addition, the “apparent Kd” value in assay [5] amounted to 70.5 µM.
As for `O=C1Nc2ccc3ccc(nc3n2)CNCc2ccc3ccc(nc3n2)NC(=O)OCC/C=C\CCO1`, the binding entry in assay [4] (20 mM magnesium acetate, 1.7 M ammonium sulfate, cacodylate pH 6.0) is “yes”.
As for `O=C1Nc2ccc3ccc(nc3n2)CNCc2ccc3ccc(nc3n2)NC(=O)OCCCNCCCO1`, the binding entry in assay [4] (2 mM MgCl2, 5 mM hexamine cobalt chloride, MOPS pH 7.0, Tacsimate) is listed as “yes”.

One may read the apparent Kd as the concentration giving half-maximal binding under the conditions of the assay.
